Test results published in patent US20050009005A1, “Methods of using quantitative lipid metabolome data” (Lipomics Technologies, Inc., priority 2001, published 2005).
Read-outs that look alike come from different tables or passages of the source.

System: de novo fatty acid synthesis
[1] = Adipose, CE, mean of treated mice
[2] = Adipose, FFA, mean of treated mice
[3] = Adipose, PL, mean of treated mice
[4] = Adipose, TAG, mean of treated mice
[5] = Heart, CE, mean of treated mice
[6] = Heart, FFA, mean of treated mice
[7] = Heart, PC, mean of treated mice
[8] = Heart, PS/I, mean of treated mice
[9] = Heart, TAG, mean of treated mice
[10] = Liver, CE, mean of treated mice

CN(CCOc1ccc(CC2SC(=O)NC2=O)cc1)c1ccccn1 (centres unmarked) [rosiglitazone]
14:0 (Adipose, CE, mean): 3.8 percentage of total fatty acids within each lipid class | 16:0 (Adipose, CE, mean): 10.9 percentage of total fatty acids within each lipid class | 16:1n7 (Adipose, CE, mean): 7.1 percentage of total fatty acids within each lipid class | 18:0 (Adipose, CE, mean): 3.8 percentage of total fatty acids within each lipid class | 18:1n7 (Adipose, CE, mean): 1.3 percentage of total fatty acids within each lipid class | 18:1n9 (Adipose, CE, mean): 31.8 percentage of total fatty acids within each lipid class | Saturates (Adipose, CE, mean): 24.3 percentage of total fatty acids within each lipid class | Total (Adipose, CE, mean): 100.0 percentage of total fatty acids within each lipid class | Total n7 (Adipose, CE, mean): 8.4 percentage of total fatty acids within each lipid class | Total n9 (Adipose, CE, mean): 33.7 percentage of total fatty acids within each lipid class | 14:0 [1]: 131.5 nanomoles per gram | 16:0 [1]: 361.1 nanomoles per gram | 16:1n7 [1]: 248.8 nanomoles per gram | 18:0 [1]: 128.3 nanomoles per gram | 18:1n7 [1]: 44.3 nanomoles per gram | 18:1n9 [1]: 1135.7 nanomoles per gram | Saturates [1]: 833.5 nanomoles per gram | Total n7 [1]: 293.1 nanomoles per gram | Total n9 [1]: 1202.9 nanomoles per gram | Total nMole of [1]: 3405.8 nanomoles per gram | 14:0 (Adipose, FFA, mean): 3.0 percentage of total fatty acids within each lipid class | 16:0 (Adipose, FFA, mean): 16.7 percentage of total fatty acids within each lipid class | 16:1n7 (Adipose, FFA, mean): 8.0 percentage of total fatty acids within each lipid class | 18:0 (Adipose, FFA, mean): 3.6 percentage of total fatty acids within each lipid class | 18:1n7 (Adipose, FFA, mean): 3.4 percentage of total fatty acids within each lipid class | 18:1n9 (Adipose, FFA, mean): 30.4 percentage of total fatty acids within each lipid class | Saturates (Adipose, FFA, mean): 23.9 percentage of total fatty acids within each lipid class | Total (Adipose, FFA, mean): 100.0 percentage of total fatty acids within each lipid class | Total n9 (Adipose, FFA, mean): 30.8 percentage of total fatty acids within each lipid class | 14:0 [2]: 391.9 nanomoles per gram | 16:0 [2]: 2241.1 nanomoles per gram | 16:1n7 [2]: 1073.7 nanomoles per gram | 18:0 [2]: 487.0 nanomoles per gram | 18:1n7 [2]: 461.5 nanomoles per gram | 18:1n9 [2]: 4055.1 nanomoles per gram | Saturates [2]: 3203.6 nanomoles per gram | Total n7 [2]: 1535.2 nanomoles per gram | Total n9 [2]: 4117.3 nanomoles per gram | Total nMole of [2]: 13373.4 nanomoles per gram | 14:0 (Adipose, PL, mean): 1.6 percentage of total fatty acids within each lipid class | 16:0 (Adipose, PL, mean): 18.8 percentage of total fatty acids within each lipid class | 16:1n7 (Adipose, PL, mean): 3.6 percentage of total fatty acids within each lipid class | 18:0 (Adipose, PL, mean): 13.7 percentage of total fatty acids within each lipid class | 18:1n7 (Adipose, PL, mean): 2.8 percentage of total fatty acids within each lipid class | 18:1n9 (Adipose, PL, mean): 18.0 percentage of total fatty acids within each lipid class | Saturates (Adipose, PL, mean): 36.3 percentage of total fatty acids within each lipid class | Total (Adipose, PL, mean): 100.0 percentage of total fatty acids within each lipid class | Total n7 (Adipose, PL, mean): 6.5 percentage of total fatty acids within each lipid class | Total n9 (Adipose, PL, mean): 19.2 percentage of total fatty acids within each lipid class | 14:0 [3]: 152.1 nanomoles per gram | 16:0 [3]: 1706.0 nanomoles per gram | 16:1n7 [3]: 338.8 nanomoles per gram | 18:0 [3]: 1240.0 nanomoles per gram | 18:1n7 [3]: 261.8 nanomoles per gram | 18:1n9 [3]: 1679.9 nanomoles per gram | Saturates [3]: 3281.6 nanomoles per gram | Total n7 [3]: 600.6 nanomoles per gram | Total n9 [3]: 1787.7 nanomoles per gram | Total nMole of [3]: 4559.5 nanomoles per gram | 14:0 (Adipose, TAG, mean): 1.8 percentage of total fatty acids within each lipid class | 16:0 (Adipose, TAG, mean): 22.5 percentage of total fatty acids within each lipid class | 16:1n7 (Adipose, TAG, mean): 7.3 percentage of total fatty acids within each lipid class | 18:0 (Adipose, TAG, mean): 1.5 percentage of total fatty acids within each lipid class | 18:1n7 (Adipose, TAG, mean): 3.2 percentage of total fatty acids within each lipid class | 18:1n9 (Adipose, TAG, mean): 30.5 percentage of total fatty acids within each lipid class | Saturates (Adipose, TAG, mean): 26.2 percentage of total fatty acids within each lipid class | Total (Adipose, TAG, mean): 100.0 percentage of total fatty acids within each lipid class | Total n7 (Adipose, TAG, mean): 10.5 percentage of total fatty acids within each lipid class | Total n9 (Adipose, TAG, mean): 30.8 percentage of total fatty acids within each lipid class | 14:0 [4]: 52712.2 nanomoles per gram | 16:0 [4]: 650079.8 nanomoles per gram | 16:1n7 [4]: 210006.6 nanomoles per gram | 18:0 [4]: 43888.4 nanomoles per gram | 18:1n7 [4]: 93310.6 nanomoles per gram | 18:1n9 [4]: 880178.1 nanomoles per gram | Saturates [4]: 755758.5 nanomoles per gram | Total n7 [4]: 303317.2 nanomoles per gram | Total n9 [4]: 891269.3 nanomoles per gram | Total nMole of [4]: 962282.9 nanomoles per gram | 14:0 (Heart, CE, mean): 4.3 percentage of total fatty acids within each lipid class | 16:0 (Heart, CE, mean): 14.6 percentage of total fatty acids within each lipid class | 16:1n7 (Heart, CE, mean): 3.4 percentage of total fatty acids within each lipid class | 18:0 (Heart, CE, mean): 6.4 percentage of total fatty acids within each lipid class | 18:1n7 (Heart, CE, mean): 1.3 percentage of total fatty acids within each lipid class | 18:1n9 (Heart, CE, mean): 25.5 percentage of total fatty acids within each lipid class | 14:0 [5]: 56.4 nanomoles per gram | 16:0 [5]: 198.8 nanomoles per gram | 16:1n7 [5]: 45.4 nanomoles per gram | 18:0 [5]: 89.0 nanomoles per gram | 18:1n7 [5]: 19.3 nanomoles per gram | 18:1n9 [5]: 370.9 nanomoles per gram | Saturates [5]: 379.2 nanomoles per gram | Total n7 [5]: 64.8 nanomoles per gram | Total n9 [5]: 383.4 nanomoles per gram | Total nMole of [5]: 1358.5 nanomoles per gram | 14:0 (Heart, CL, mean): 0.2 percentage of total fatty acids within each lipid class | 16:0 (Heart, CL, mean): 1.3 percentage of total fatty acids within each lipid class | 16:1n7 (Heart, CL, mean): 2.0 percentage of total fatty acids within each lipid class | 18:0 (Heart, CL, mean): 2.4 percentage of total fatty acids within each lipid class | 18:1n7 (Heart, CL, mean): 3.0 percentage of total fatty acids within each lipid class | 18:1n9 (Heart, CL, mean): 5.0 percentage of total fatty acids within each lipid class | Saturates (Heart, CL, mean): 4.1 percentage of total fatty acids within each lipid class | Total (Heart, CL, mean): 100.0 percentage of total fatty acids within each lipid class | Total n7 (Heart, CL, mean): 5.1 percentage of total fatty acids within each lipid class | Total n9 (Heart, CL, mean): 5.3 percentage of total fatty acids within each lipid class | 14:0 (Heart, FFA, mean): 2.1 percentage of total fatty acids within each lipid class | 16:0 (Heart, FFA, mean): 22.6 percentage of total fatty acids within each lipid class | 16:1n7 (Heart, FFA, mean): 3.0 percentage of total fatty acids within each lipid class | 18:0 (Heart, FFA, mean): 8.3 percentage of total fatty acids within each lipid class | 18:1n7 (Heart, FFA, mean): 3.6 percentage of total fatty acids within each lipid class | 18:1n9 (Heart, FFA, mean): 18.7 percentage of total fatty acids within each lipid class | Saturates (Heart, FFA, mean): 33.8 percentage of total fatty acids within each lipid class | Total (Heart, FFA, mean): 100.0 percentage of total fatty acids within each lipid class | Total n7 (Heart, FFA, mean): 6.6 percentage of total fatty acids within each lipid class | Total n9 (Heart, FFA, mean): 19.4 percentage of total fatty acids within each lipid class | 14:0 [6]: 52.4 nanomoles per gram | 16:0 [6]: 560.7 nanomoles per gram | 16:1n7 [6]: 73.6 nanomoles per gram | 18:0 [6]: 206.9 nanomoles per gram | 18:1n7 [6]: 90.0 nanomoles per gram | 18:1n9 [6]: 466.4 nanomoles per gram | Saturates [6]: 839.0 nanomoles per gram | Total n7 [6]: 163.6 nanomoles per gram | Total n9 [6]: 483.8 nanomoles per gram | Total nMole of [6]: 2482.9 nanomoles per gram | 14:0 (Heart, PC, mean): 0.2 percentage of total fatty acids within each lipid class | 16:0 (Heart, PC, mean): 29.2 percentage of total fatty acids within each lipid class | 16:1n7 (Heart, PC, mean): 1.0 percentage of total fatty acids within each lipid class | 18:0 (Heart, PC, mean): 11.6 percentage of total fatty acids within each lipid class | 18:1n7 (Heart, PC, mean): 4.0 percentage of total fatty acids within each lipid class | 18:1n9 (Heart, PC, mean): 10.7 percentage of total fatty acids within each lipid class | Saturates (Heart, PC, mean): 41.4 percentage of total fatty acids within each lipid class | Total (Heart, PC, mean): 100.0 percentage of total fatty acids within each lipid class | Total n7 (Heart, PC, mean): 5.0 percentage of total fatty acids within each lipid class | Total n9 (Heart, PC, mean): 10.9 percentage of total fatty acids within each lipid class | 14:0 [7]: 68.3 nanomoles per gram | 16:0 [7]: 8497.6 nanomoles per gram | 16:1n7 [7]: 289.1 nanomoles per gram | 18:0 [7]: 3392.4 nanomoles per gram | 18:1n7 [7]: 1154.7 nanomoles per gram | 18:1n9 [7]: 3120.1 nanomoles per gram | Saturates [7]: 12059.6 nanomoles per gram | Total n7 [7]: 1443.8 nanomoles per gram | Total n9 [7]: 3184.2 nanomoles per gram | Total nMole of [7]: 14579.5 nanomoles per gram | 14:0 (Heart, PS/I, mean): 0.3 percentage of total fatty acids within each lipid class | 16:0 (Heart, PS/I, mean): 5.2 percentage of total fatty acids within each lipid class | 16:1n7 (Heart, PS/I, mean): 0.4 percentage of total fatty acids within each lipid class | 18:0 (Heart, PS/I, mean): 33.6 percentage of total fatty acids within each lipid class | 18:1n7 (Heart, PS/I, mean): 1.4 percentage of total fatty acids within each lipid class | 18:1n9 (Heart, PS/I, mean): 5.1 percentage of total fatty acids within each lipid class | Saturates (Heart, PS/I, mean): 39.7 percentage of total fatty acids within each lipid class | Total (Heart, PS/I, mean): 100.0 percentage of total fatty acids within each lipid class | Total n7 (Heart, PS/I, mean): 1.8 percentage of total fatty acids within each lipid class | Total n9 (Heart, PS/I, mean): 5.8 percentage of total fatty acids within each lipid class | 14:0 [8]: 25.3 nanomoles per gram | 16:0 [8]: 515.0 nanomoles per gram | 16:1n7 [8]: 36.4 nanomoles per gram | 18:0 [8]: 3334.5 nanomoles per gram | 18:1n7 [8]: 143.9 nanomoles per gram | 18:1n9 [8]: 504.6 nanomoles per gram | Saturates [8]: 3945.4 nanomoles per gram | Total n7 [8]: 180.2 nanomoles per gram | Total n9 [8]: 572.9 nanomoles per gram | Total nMole of [8]: 4967.1 nanomoles per gram | 14:0 (Heart, TAG, mean): 3.0 percentage of total fatty acids within each lipid class | 16:0 (Heart, TAG, mean): 26.0 percentage of total fatty acids within each lipid class | 16:1n7 (Heart, TAG, mean): 4.9 percentage of total fatty acids within each lipid class | 18:0 (Heart, TAG, mean): 3.5 percentage of total fatty acids within each lipid class | 18:1n7 (Heart, TAG, mean): 3.2 percentage of total fatty acids within each lipid class | 18:1n9 (Heart, TAG, mean): 26.2 percentage of total fatty acids within each lipid class | 14:0 [9]: 160.8 nanomoles per gram | 16:0 [9]: 1597.3 nanomoles per gram | 16:1n7 [9]: 316.4 nanomoles per gram | 18:0 [9]: 173.5 nanomoles per gram | 18:1n7 [9]: 210.7 nanomoles per gram | 18:1n9 [9]: 1775.7 nanomoles per gram | Saturates [9]: 1993.9 nanomoles per gram | Total n7 [9]: 527.1 nanomoles per gram | Total n9 [9]: 1813.1 nanomoles per gram | Total nMole of [9]: 2014.7 nanomoles per gram | 14:0 (Liver, CE, mean): 1.9 percentage of total fatty acids within each lipid class | 16:0 (Liver, CE, mean): 48.0 percentage of total fatty acids within each lipid class | 16:1n7 (Liver, CE, mean): 11.8 percentage of total fatty acids within each lipid class | 18:0 (Liver, CE, mean): 3.5 percentage of total fatty acids within each lipid class | 18:1n7 (Liver, CE, mean): 2.3 percentage of total fatty acids within each lipid class | 18:1n9 (Liver, CE, mean): 19.9 percentage of total fatty acids within each lipid class | Saturates (Liver, CE, mean): 54.6 percentage of total fatty acids within each lipid class | Total (Liver, CE, mean): 100.0 percentage of total fatty acids within each lipid class | Total n7 (Liver, CE, mean): 14.1 percentage of total fatty acids within each lipid class | Total n9 (Liver, CE, mean): 20.5 percentage of total fatty acids within each lipid class | 14:0 [10]: 110.6 nanomoles per gram | 16:0 [10]: 2765.2 nanomoles per gram | 16:1n7 [10]: 678.5 nanomoles per gram
